Patent US7045516B1, “Benzoxazole derivatives and drugs containing the same as the active ingredient” (Koichi Shudo, priority 1998, dated 2006)
Read-outs that look alike come from different tables or passages of the source.

How the values were obtained:
[1] = Reverse mutation test
Experimental: A reverse mutagenicity test was performed using the compound of Example 1 (b) of the present specification, hydrochloride of 5,7-dimethyl-2-(1-piperazinyl)benzoxazole (C), hydrochloride of 5-chloro-7-methyl-2-(4-methyl-1-piperazinyl)benzoxazole (D), and hydrochloride of 5-chloro-7-methyl-2-(4-methyl-1-homopiperazinyl) benzoxazole (E) (compounds disclosed in Japanese Patent Publication (KOKAI) No. 10-29987/1998), and the compound described in Reference Example 4 of the present specification, i.e., hydrochloride of 5-chloro-7-methyl-2-(1-piperazinyl) benzoxazole (F) according to the method of T. Matsushima et al. (Noropoth K. H., Springer, Berlin-Heidelberg-New York, “Short-Term Test Systems For Detecting Carcinogens”, pp. 273–285, 1980) referred by the guideline 471 of ORGANIZATION FOR ECONOMIC CO-OPERATION AND DEVELOPMENT.

[2] = tested on: rat diarrhea under restriction stress; test: Inhibitory action for rat diarrhea under restriction stress; assay type: in vivo; details: oral, 30 min before restraint, male Wistar rats, 3 hours, nonlinear least square method
Experimental: L. Williams et al. [GASTROENTEROLOGY, 94, 611–621 (1988)] was determined as follows, and the results were analyzed by the nonlinear least square method. 8-Week old male Wistar rats were starved from the evening of the day before the test. Each test compound was orally administered to the rats. After 30 minutes, the rats were constrained by binding of their fore-limbs and hind-limbs with wires. The rats were left in individual gages on white sheets under luminescent lamps for 3 hours. […] The test was performed with groups of rats each consisting of 8 rats.

[3] = tested on: large bowel transportation ability of normal mice; test: Effect on large bowel transportation ability of normal mice (glass bead excretion); assay type: in vivo, mouse; details: ddY male mice, bead inserted after 30 minutes
Experimental: G. et al. [Drug Dev. Res., 9, 241-247, (1986)] was determined as follows. Each test compound was orally administered to 5- to 7-week old ddY male mice starved for about 4 hours. […] After the insertion of the glass bead, time (second) from the insertion to excretion of the bead from the anus was measured, and the time was used as an index of large bowel transportation ability. The test was performed by using groups of mice each consisting of 9 to 11 mice, and all of the procedures were performed under no anesthesia.

[4] = Toxicity test, oral administration to mice; assay type: in vivo; details: 300 mg/kg, suspended in distilled water, 7-week old male mice
Experimental: The compound of Example 1 (b) gave no death of the animal at a dose of 300 mg/kg.

[5] = Metabolic activity in human liver, in vitro system with S9 fraction; assay type: in vitro ADME; details: 50 μmol/L test compound, 1 mg/mL human liver S9, NADPH production system, 37 °C, 15 minutes
Experimental: The test was performed in an in vitro system utilizing human liver S9 fraction in the presence of an NADPH production system described below. A reaction mixture of a total volume of 125 μL containing components at given final concentrations was prepared (50 μmol/L of test compound, 6 mmol/L of MgCl2.6H2O, 1 mmol/L of β-NADP^+, 10 mmol/L of glucose-6-phosphate (G-6-P), 0.7 U/mL of G-6-P dehydrogenase, 100 mmol/L of potassium phosphate (pH 7.4), 0.1 mmol/L of EDTANa2, and 1 mg/mL of human liver S9), and incubated at 37 C.° for 15 minutes. The reaction was stopped by the addition of 125 μL of N,N-dimethylformamide containing a substance for internal standard. The reaction mixture was centrifuged (2,000×g, 10 minutes), and the supernatant was subjected to HPLC analysis to determine the concentration of unchanged substance. Consumed amount was calculated from the concentration of unchanged substance, and the metabolic rate was represented as activity per unit amount of protein.

SMILES | reverse mutagenicity [1] | ED50 ([2]; Rattus norvegicus) | time from insertion to excretion of glass bead ([3]; dose 3 mg/kg oral) | time from insertion to excretion of glass bead ([3]; dose 10 mg/kg oral) | time from insertion to excretion of glass bead ([3]; dose 30 mg/kg oral) | death of the animal [4] | reverse mutagenicity ([1]; method of Matsushima et al., OECD guideline 471) | ED50 value [2] | Metabolic activity [5]
Cc1cc(Cl)cc2nc(N3CCCNCC3)oc12.Cl [Example 1 (b), 5-Chloro-2-(1-homopiperazinyl)-7-methylbenzoxazole hydrochloride] | negative | 0.25 µg/kg | 218.39 s | 313.60 s | 239.11 s | no death |  |  | 
Cc1cc(C)c2oc(N3CCNCC3)nc2c1.Cl [Hydrochloride of C, hydrochloride of 5,7-dimethyl-2-(1-piperazinyl)benzoxazole] |  |  | 234.01 s | 251.00 s | 357.08 s |  | negative | 27.2 µg/kg | 0.06 nmol/min/mg protein
